The subject of the test is healthy subjects. The test can be described thus: Reading the Mind in the Eyes Test (RMET). The format is in vivo, human. An excerpt:
In some embodiments, Reading the Mind in the Eyes Test (RMET) is utilized to evaluate the safety and/or efficacy of psilocybin. The RMET has 36 items, in which subjects are presented with a photograph of the eyes region of the face and must choose 1 of 4 adjectives or phrases to describe the mental state of the person pictured. A definition handout is provided at the beginning of the task and a practice item precedes the first trial.
The following list of outcome measures are non-exhaustive. • a. The short-term change from Baseline (Day −1 [Visit 2]) to Day 7 (Visit 5) in cognitive measures of attention, spatial and working memory and executive function was measured by a composite score of the CANTAB Panel (Spatial Working Memory [SWM], Rapid Visual Information Processing [RVP], Paired Associates Learning [PAL]). • b. The short-term change from Baseline (Day −1 [Visit 2]) to Day 7 (Visit 5) in Social Cognition Panel scales (Pictorial Empathy Test [PET], Reading the Mind in the Eyes Test [RMET], Toronto Empathy Questionnaire [TEQ], Social Value Orientation [SVO], Scale of Social Responsibility [SSR]). • c. The change from Baseline (Day −1 [Visit 2]) to Day 28 (Visit 6) in cognitive measures of attention, spatial and working memory and executive function as measured by a composite score of the CANTAB Panel (SWM, RVP, PAL). • d. The long-term change from Baseline (Day −1 [Visit 2]) to Day 84 (Visit 7) in Social Cognition Panel scales (PET, RMET, TEQ, SVO, SSR). • e. Dose-related differences between cognitive effects of psilocybin at Baseline (Day −1 [Visit 2]), Day 7 (Visit 5) and Day 28 (Visit 6), as measured by a composite score of the CANTAB Panel (SWM, RVP, PAL). • f. Dose-related differences between psychological effects of psilocybin at Baseline (Day −1 [Visit 2]), Day 7 (Visit 5) and Day 84 (Visit 7), as measured by Social Cognition Panel scales (PET, RMET, TEQ, SVO, SSR). • g. Differences in cognitive effects of psilocybin between psilocybin-naïve and experienced subjects at Baseline (Day −1 [Visit 2]), Day 7 (Visit 5) and Day 28 (Visit 6), as measured by a composite score of the CANTAB Panel (SWM, RVP, PAL). • h. Differences in Positive and Negative Affect Schedule (PANAS) after study drug administration on Day 0 (Visit 3). • i. Differences between psilocybin and placebo in the Emotion Recognition Test (ERT), Intra-Extra Dimensional Set Shift (IED), One Touch Stockings (OTS), Verbal Fluency and Digit Span Forward at Day 7 (Visit 5). • j. A composite score of the CANTAB Panel, including the following tests: • i. Spatial Working Memory (SWM) (performed at Visit 2, Visit 5, and Visit 6). • ii. Rapid Visual Information Processing (RVP) (performed at Visit 2, Visit 5, and Visit 6). • iii. Paired Associates Learning (PAL) (performed at Visit 2, Visit 5, and Visit 6). • k. Cognitive Flexibility Panel • i. Emotion Recognition Task (ERT) (performed at Visit 5). • ii. Intra-Extra Dimensional Set Shift (IED) (performed at Visit 5). • iii. One Touch Stockings (OTS) (performed at Visit 5). • iv. Verbal Fluency (performed at Visit 5). • v. Digit Span Forward (performed at Visit 5). • l. Five Dimension Altered States of Consciousness questionnaire (5D-ASC) (performed at Visit 3). • m. PANAS (performed at Visit 2 and Visit 3). • n. NEO-Five Factor Inventory (NEO-FFI) (performed at Visit 2, Visit 5, and Visit 7). • o. Symptom Checklist-90 item (SCL-90) (performed at Visit 2, Visit 5, and Visit 7). • p. Life Changes Inventory (LCI): The LCI measures changes in attitudes and values after near-death experiences often used to evaluate personal transformation following spiritually oriented experiences and practices. (performed at Visit 5 and Visit 7). • q. Social Cognition Panel scales • i. Pictorial Empathy Test (PET) (performed at Visit 2, Visit 5, and Visit 7). • ii. Reading the Mind in the Eyes Test (RMET) (performed at Visit 2, Visit 5, and Visit 7). • iii. Social Value Orientation (SVO) (performed at Visit 2, Visit 5, and Visit 7). • iv. […]

`CN(C)CCc1c[nH]c2cccc(OP(=O)(O)O)c12` [psilocybin]: under “Day 7, MMRM”, the “RMET change from baseline, LS mean difference Psilocybin 10 mg - Placebo” value was determined as 0.1; the “RMET change from baseline, LS mean difference Psilocybin 25 mg - Placebo” value worked out at 0.2; the “RMET change from baseline, LS mean difference Psilocybin 25 mg-10 mg” value is recorded as 0.0. For the setting “Day 84, MMRM”, the “RMET change from baseline, LS mean difference Psilocybin 10 mg - Placebo” value is listed as 0.2; the “RMET change from baseline, LS mean difference Psilocybin 25 mg - Placebo” value worked out at 0.5; the “RMET change from baseline, LS mean difference Psilocybin 25 mg-10 mg” value worked out at 0.3.
